Test results as given in US8796293B2, “Purine and deazapurine derivatives as pharmaceutical compounds” (Astex Therapeutics Limited, priority 2006, dated 2014).
Where two headings read alike, the source gives them in different places.

Assays:
[1] = biological target: P70S6 kinase (T412E) (Homo sapiens (Human), UniProt P23443, T412E); assay: P70S6 radiometric assay; assay type: biochemical
Procedure: P70S6 enzyme is bought from Upstate and used at 2 nM in the assay. […] In the phosphoryl transfer reaction, the ^33P-γ phosphate from ATP is transferred to the serine residue. The reaction mixture is transferred to a phosphocellulose filter plate where the peptide binds and the unused ATP is washed away. After washing, scintillant is added and the incorporated activity measured by scintillation counting.
ATP (10 mM stock) added fresh from concentrated stocks.
Compounds—prepare a dilution curve in DMSO in a polypropylene 96 well plate to 40× final assay concentration (final DMSO 2.5%).
In a polypropylene 96 well plate add in order: • 5 μl compound • 10 μl substrate mix • 10 μl enzyme mix
Controls are “no compound” (DMSO only) and “no enzyme” (use 10 μl of the enzyme mix prior to adding enzyme). Cover with a plate seal (TopSeal A—Packard) or plastic lid from filter plate (moderate radiation barrier). Mix by gentle shaking. Incubate at room temperature for 50 minutes. Stop the reaction by adding 20 μl of 2% orthophosphoric acid.
Pre-wet the wells of a Millipore MAPH NOB plate with 50 μl of 0.5% orthophosphoric acid wash buffer. Filter the liquid through on a Millipore vacuum filtration unit. Transfer the whole of the stopped reaction to the wells. Filter through. Wash twice with 200 μl of 0.5% orthophosphoric acid wash buffer. Vacuum to near dryness. Remove the plate support and allow to the filters to dry further on tissue paper. Snap the plate into an adapter for the Packard TopCount. Add 20 μl of Microscint 20 scintillant, seal with a sheet of Topseal A and count for 30s on the TopCount.

[2] = biological target: ROCK-II (h) (Homo sapiens (Human), UniProt O75116); assay: ROCK-II (h) assay, radiometric filter assay; assay type: biochemical; conditions: read-out: IC50 (anti-ROCK-II activity)
Sequence of ROCK-II (h) (O75116 whole entry): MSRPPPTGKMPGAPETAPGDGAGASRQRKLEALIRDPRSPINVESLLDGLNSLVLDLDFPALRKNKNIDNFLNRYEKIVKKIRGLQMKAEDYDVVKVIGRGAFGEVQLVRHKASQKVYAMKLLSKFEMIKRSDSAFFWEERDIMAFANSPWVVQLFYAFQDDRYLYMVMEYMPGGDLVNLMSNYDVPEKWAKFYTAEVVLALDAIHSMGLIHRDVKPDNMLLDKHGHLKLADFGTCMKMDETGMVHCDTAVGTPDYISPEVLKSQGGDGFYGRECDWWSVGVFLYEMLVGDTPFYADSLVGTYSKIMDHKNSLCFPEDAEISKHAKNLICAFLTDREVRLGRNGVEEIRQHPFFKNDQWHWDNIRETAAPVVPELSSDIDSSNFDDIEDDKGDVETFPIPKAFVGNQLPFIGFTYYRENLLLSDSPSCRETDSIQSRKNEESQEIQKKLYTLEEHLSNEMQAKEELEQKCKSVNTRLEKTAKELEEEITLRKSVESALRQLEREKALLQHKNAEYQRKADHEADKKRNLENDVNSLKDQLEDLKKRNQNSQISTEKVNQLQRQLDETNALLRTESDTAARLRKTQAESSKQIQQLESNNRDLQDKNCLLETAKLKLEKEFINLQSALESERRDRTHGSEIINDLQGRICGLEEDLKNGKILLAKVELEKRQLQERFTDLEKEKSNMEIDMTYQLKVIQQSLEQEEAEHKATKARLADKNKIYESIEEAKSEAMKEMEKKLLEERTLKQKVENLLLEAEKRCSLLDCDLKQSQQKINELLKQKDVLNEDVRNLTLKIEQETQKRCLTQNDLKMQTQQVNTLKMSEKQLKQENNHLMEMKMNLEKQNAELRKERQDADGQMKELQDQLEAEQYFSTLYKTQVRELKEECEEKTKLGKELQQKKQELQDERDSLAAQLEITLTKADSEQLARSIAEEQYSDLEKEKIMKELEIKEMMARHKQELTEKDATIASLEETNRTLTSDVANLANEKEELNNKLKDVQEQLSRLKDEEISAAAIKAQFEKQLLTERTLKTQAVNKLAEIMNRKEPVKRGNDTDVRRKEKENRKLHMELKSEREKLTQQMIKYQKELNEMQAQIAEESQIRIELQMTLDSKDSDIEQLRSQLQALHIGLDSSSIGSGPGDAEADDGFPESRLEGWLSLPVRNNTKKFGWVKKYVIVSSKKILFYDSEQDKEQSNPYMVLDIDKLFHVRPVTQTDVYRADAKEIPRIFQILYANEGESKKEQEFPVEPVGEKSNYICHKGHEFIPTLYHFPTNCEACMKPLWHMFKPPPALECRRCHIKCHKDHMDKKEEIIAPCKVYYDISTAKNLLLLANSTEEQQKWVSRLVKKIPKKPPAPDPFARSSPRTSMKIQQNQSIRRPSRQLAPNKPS
Procedure: (specific activity approx. 500 cpm/pmol, concentration as required). The reaction is initiated by the addition of the MgATP mix. After incubation for 40 minutes at room temperature, the reaction is stopped by the addition of 5 μl of a 3% phosphoric acid solution. 10 μl of the reaction is then spotted onto a P30 filtermat and washed three times for 5 minutes in 75 mM phosphoric acid and once in methanol prior to drying and scintillation counting.
The compound of various examples described above were tested for anti-ROCK-II activity (assay as described above): […]

[3] = system: blood pressure; conditions: cited from earlier work
[4] = rat, in vivo, po, 30 mg/kg; cited from earlier work
[5] = enzyme 2 nM, ATP approximately 15 μM, 50 minutes at room temperature, read-out: IC50 (anti-P70S6K activity)
[6] = [γ-33P-ATP], 40 minutes at room temperature

Sequence of P70S6 kinase (T412E) (P23443 whole entry T412E): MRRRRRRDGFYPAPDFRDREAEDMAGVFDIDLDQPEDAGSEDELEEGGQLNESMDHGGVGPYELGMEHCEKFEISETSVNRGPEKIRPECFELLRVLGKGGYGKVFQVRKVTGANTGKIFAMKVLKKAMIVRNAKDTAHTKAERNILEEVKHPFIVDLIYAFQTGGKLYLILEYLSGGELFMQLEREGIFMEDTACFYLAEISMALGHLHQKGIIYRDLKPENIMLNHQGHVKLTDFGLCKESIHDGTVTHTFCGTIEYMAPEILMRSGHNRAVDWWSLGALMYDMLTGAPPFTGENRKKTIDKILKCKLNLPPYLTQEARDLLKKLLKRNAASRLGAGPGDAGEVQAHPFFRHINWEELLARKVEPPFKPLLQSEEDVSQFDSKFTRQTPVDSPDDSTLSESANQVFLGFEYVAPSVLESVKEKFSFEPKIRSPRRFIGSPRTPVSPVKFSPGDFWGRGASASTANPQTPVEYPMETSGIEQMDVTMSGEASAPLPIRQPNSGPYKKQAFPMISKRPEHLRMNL

| IC50 [1, 5] [nM] | IC50 [2, 6] [nM] | Structure (SMILES) | also measured |
| --- | --- | --- | --- |
| 94 | < 1000 | NC1(Cc2ccc(Cl)cc2)CCN(c2ncnc3[nH]ccc23)CC1 [Example 17, 4-(4-Chlorobenzyl)-1-(7H-pyrrolo[2,3-d]pyrimidin-4-yl)piperidin-4-ylamine] |  |
|  |  | NC1(c2ccc(Cl)cc2)CCN(c2ncnc3[nH]ccc23)CC1 [Example 25, 4-(4-Chlorophenyl)-1-(7H-pyrrolo[2,3-d]pyrimidin-4-yl)piperidin-4-ylamine] | IC50 [1]: 13 nM |
| 7 |  | NCC1(c2ccc(OC(F)(F)F)cc2)CCN(c2ncnc3[nH]ccc23)CC1 [Example 30] |  |
| 30 | < 10 | NC1(Cc2ccc(Cl)cc2)CCN(c2ccnc3[nH]ccc23)CC1 [Example 54, 4-(4-Chlorobenzyl)-1-(1H-pyrrolo[2,3-b]pyridin-4-yl)-piperidin-4-ylamine] |  |
|  | > 1000 | NC1(Cc2ccccc2Cl)CCN(c2ncnc3[nH]ccc23)CC1 [Example 55, 4-(2-Chlorobenzyl)-1-(7H-pyrrolo[2,3-d]pyrimidin-4-yl)piperidin-4-ylamine] |  |
|  |  | C[C@@H](N)[C@H]1CC[C@H](C(=O)Nc2ccncc2)CC1 [Example Y-27632] | effect on blood pressure ([3]; hypertensive rats): reduces blood pressure; effect on blood pressure ([3]; normal rats): does not affect blood pressure; toxicity in rats [4]: not toxic |

| Structure (SMILES) | IC50 [1, 5] [nM] | IC50 [2, 6] [nM] | also measured |
| --- | --- | --- | --- |
| NC1CCN(c2ncnc3[nH]c(=O)[nH]c23)CC1 [Example 4, 6-(4-Aminopiperidin-1-yl)-7,9-dihydropurin-8-one] | 3000 |  | IC50 [2]: > 1000 nM |
| NC1(Cc2ccc(Cl)cc2Cl)CCN(c2ncnc3[nH]ccc23)CC1 [Example 59, 4-(2,4-Dichlorobenzyl)-1-(7H-pyrrolo[2,3-d]pyrimidin-4-yl)piperidin-4-ylamine] | 59 |  | IC50 [2]: < 30 nM |
